Settings: in vivo

| SMILES | Class(High: HIA value ≥0.7; Low: HIA value < 0.7) |
| --- | --- |
| COC(=O)C(c1ccccc1Cl)N1CCc2sccc2C1 (stereo in doubt) [Clopidogrel(R)] | Low (key: High: HIA value ≥0.7; Low: HIA value < 0.7) |
| CN1C(=O)CCC1c1cccnc1 (stereo in doubt) [Cotinine(R)] | High (key: High: HIA value ≥0.7; Low: HIA value < 0.7) |
| CCC(C(N)=O)N1CCCC1=O (stereo in doubt) [Levetiracetam(R)] | High (key: High: HIA value ≥0.7; Low: HIA value < 0.7) |
| CN(Cc1cnc2nc(N)nc(N)c2n1)c1ccc(C(=O)NC(CCC(=O)O)C(=O)O)cc1 (stereo in doubt) [Methotrexate(R)] | High (key: High: HIA value ≥0.7; Low: HIA value < 0.7) |
| C#C[C@]1(O)CC[C@H]2[C@@H]3CCC4=CC(=O)CC[C@@H]4[C@H]3CC[C@@]21CC [Levonorgestrel] | High (key: High: HIA value ≥0.7; Low: HIA value < 0.7) |
| CCN(CC)CCNC(=O)c1cc(Cl)c(N)cc1OC [Metoclopramide] | High (key: High: HIA value ≥0.7; Low: HIA value < 0.7) |
| Nc1cc(N2CCCCC2)nc(N)[n+]1[O-] [Minoxidil] | High (key: High: HIA value ≥0.7; Low: HIA value < 0.7) |
| CN1CC[C@]23c4c5ccc(O)c4O[C@H]2[C@@H](O)C=C[C@H]3[C@H]1C5 [Morphine] | High (key: High: HIA value ≥0.7; Low: HIA value < 0.7) |
| CCN(CC)CCOC(=O)C(Cc1cccc2ccccc12)CC1CCCO1 (stereo not drawn) [Nafronyl] | High (key: High: HIA value ≥0.7; Low: HIA value < 0.7) |
| O=C1CN=C(c2ccccc2)c2cc(Cl)ccc2N1 [Nordazepam] | High (key: High: HIA value ≥0.7; Low: HIA value < 0.7) |
| C#CC1(O)CC[C@H]2[C@@H]3CCC4=CC(=O)CC[C@@H]4[C@H]3CC[C@@]21CC (stereo partly drawn) [Norgestrel] | High (key: High: HIA value ≥0.7; Low: HIA value < 0.7) |
| O=C1Nc2ccc(Cl)cc2C(c2ccccc2)=N[C@@H]1O [Oxazepam(R)] | High (key: High: HIA value ≥0.7; Low: HIA value < 0.7) |
| O=C1Nc2ccc(Cl)cc2C(c2ccccc2)=N[C@H]1O [Oxazepam(S)] | High (key: High: HIA value ≥0.7; Low: HIA value < 0.7) |
| C[C@]12C=CC(=O)C=C1CC[C@@H]1[C@@H]2[C@@H](O)C[C@@]2(C)[C@H]1CC[C@]2(O)C(=O)CO [Prednisolone] | High (key: High: HIA value ≥0.7; Low: HIA value < 0.7) |
| CCCc1cc(=O)[nH]c(=S)[nH]1 [Propylthiouracil] | High (key: High: HIA value ≥0.7; Low: HIA value < 0.7) |
| O=C(O)c1ccccc1O [Salicylic acid] | High (key: High: HIA value ≥0.7; Low: HIA value < 0.7) |
| Cc1cc(NS(=O)(=O)c2ccc(N)cc2)no1 [Sulfamethoxazole] | High (key: High: HIA value ≥0.7; Low: HIA value < 0.7) |
| CN1C(=O)[C@@H](O)N=C(c2ccccc2)c2cc(Cl)ccc21 [Temazepam(R)] | High (key: High: HIA value ≥0.7; Low: HIA value < 0.7) |
| CN1C(=O)[C@H](O)N=C(c2ccccc2)c2cc(Cl)ccc21 [Temazepam(S)] | High (key: High: HIA value ≥0.7; Low: HIA value < 0.7) |
| Cc1nnc2n1-c1ccc(Cl)cc1C(c1ccccc1Cl)=NC2 [Triazolam] | High (key: High: HIA value ≥0.7; Low: HIA value < 0.7) |

Settings: in vivo; cited from earlier work

| SMILES | HIA(Human Intestinal Absorption) |
| --- | --- |
| COC(=O)C(c1ccccc1Cl)N1CCc2sccc2C1 (stereo in doubt) [Clopidogrel(R)] | 0.5 |
| CN1C(=O)CCC1c1cccnc1 (stereo in doubt) [Cotinine(R)] | 0.97 |
| CCC(C(N)=O)N1CCCC1=O (stereo in doubt) [Levetiracetam(R)] | 1 |
| CN(Cc1cnc2nc(N)nc(N)c2n1)c1ccc(C(=O)NC(CCC(=O)O)C(=O)O)cc1 (stereo in doubt) [Methotrexate(R)] | 1 |
